# Measured values from paper PMC9090415, “Discovery of small molecule inhibitors of Plasmodium falciparum apicoplast DNA polymerase” (Journal of Enzyme Inhibition and Medicinal Chemistry, 2022).
# Target: P. falciparum apicoplast DNA polymerase (Pf-apPOL) (Plasmodium falciparum, UniProt Q8ILY1)
# Experiment: Fluorescence-based high-throughput DNA polymerase assay (molecular beacon), primary screen and dose-response
# Assay type: biochemical
# Protocol: The HT assay employs a molecular beacon, a stem-loop DNA template with a Cy3 dye and the Black Hole Quencher on the 3′ and 5′ ends of the DNA, respectively. Pf-apPOL concentration is based on a calculated absorptivity of ε280 = 56750 M^−1 cm^−1. Reactions were carried out at 25 °C, using Corning 3575 […] (well-volume, 20 µL). Assays testing for compound inhibition composed of reaction buffer (pH 7.9 in 50 mM potassium acetate, 20 mM Tris-acetate and 10 mM magnesium acetate), Pf-apPOL (20 nM), DNA substrate (20 nM), dNTPs (6 µM), and compound (10 µM in DMSO). The DNA and nucleotide substrates (dNTPs) were at concentrations of 20 nM and 6 µM, respectively, in the assay. Pf-apPOL was incubated in the reaction buffer with dNTPs and the compound of interest (10 µM, in the assay) at 25 °C for 10 min. The DNA substrate was then added and the reaction was allowed to proceed for 90 min at 25 °C.
# Each assay plate contained 16 negative controls (no Pf-apPOL, DMSO present) and 16 positive controls (Pf-apPOL present, no DMSO). The fluorescence of each well was determined using a BioTek Synergy Neo fluorescence plate reader using excitation and emission wavelengths of 555 and 570 nm, respectively.
# In the above, Min is the average of fluorescence emission of the negative controls (substrate only), Max the average fluorescence emission from the positive controls (enzyme + substrate), and Test the emission from the assays in the presence of compounds (enzyme + compound + substrates). […] […] The IC50 of each compound was determined using Equation (2): (2) IC50= Vmax/(1+ (I/IC50)^n)
# In the above, n measures cooperativity, with n > 1 indicating synergistic binding of more than a single molecule of the compound.
# To identify apPOL inhibitors we utilised our previously developed high-throughput DNA polymerase assay. The HT assay is based on a molecular beacon DNA template that forms a stem-loop with a Cy3 dye and the Black Hole Quencher on the 3′ and 5′ ends of the DNA, respectively. DNA polymerase activity extends an annealed primer through the stem region, displacing the fluorophore from the quencher, thereby increasing its fluorescence (Figure 1(A)). The assay accurately recapitulates the kinetic behaviour of apPOL, as measured through more conventional low-throughput gel-based assays. The Z′ factor for the assay described here was 0.9 across all plates (data not shown).
# Figure 1. High-throughput screening. (A) The fluorescent-based DNA polymerase assay used to screen the compound libraries. The DNA template strand is a hairpin loop with a primer annealed to the loop. The 3’ end of the primer is 11 bases away from the 6 bp duplex. Strand displacement activity of the DNA polymerase separates the Cy3 dye from the Black hole quencher leading to an increase in fluorescent signal. (B) The high-throughput assay workflow. The DNA polymerase is incubated with […] compound for 10 min prior to addition of the hairpin substrate. The reaction is quenched at 3 different time points and the fluorescent signal is measured and % inhibition is determined using the provided equation.
# [1] = supplemental file 2, sheet IC50 nontoxic compounds; Pf-apPOL
# Chain of P. falciparum apicoplast DNA polymerase (Pf-apPOL) (Q8ILY1 entry or part of it): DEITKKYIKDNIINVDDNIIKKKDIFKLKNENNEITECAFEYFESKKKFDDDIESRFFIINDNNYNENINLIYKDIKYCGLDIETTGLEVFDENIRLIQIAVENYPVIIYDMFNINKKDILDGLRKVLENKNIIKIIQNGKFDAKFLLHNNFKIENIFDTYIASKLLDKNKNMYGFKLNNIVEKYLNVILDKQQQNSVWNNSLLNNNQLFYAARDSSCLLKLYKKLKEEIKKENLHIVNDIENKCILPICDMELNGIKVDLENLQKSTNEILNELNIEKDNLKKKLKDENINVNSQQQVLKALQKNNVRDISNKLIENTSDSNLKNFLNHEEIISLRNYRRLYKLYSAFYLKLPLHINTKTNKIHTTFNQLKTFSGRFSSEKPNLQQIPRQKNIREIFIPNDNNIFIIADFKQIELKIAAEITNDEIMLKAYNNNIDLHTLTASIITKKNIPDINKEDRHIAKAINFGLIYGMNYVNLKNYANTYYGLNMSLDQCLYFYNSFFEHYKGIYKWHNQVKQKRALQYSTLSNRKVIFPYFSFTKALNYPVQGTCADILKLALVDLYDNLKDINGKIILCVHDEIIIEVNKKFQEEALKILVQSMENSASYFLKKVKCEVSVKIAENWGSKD
compound,measurement,setting,value
"O=C(Cn1ccc2c(=O)[nH]ccc21)Nc1ccccc1Cl [Molecule 19, O=C(Cn1ccc2c1cc[nH]c2=O)Nc1ccccc1Cl]",% inhibition Apo pol 10',DRC-1; concentration 2.5; 10',11.0481%
same,% inhibition Apol 90',DRC-1; concentration 2.5; 90',3.184%
same,% inhibition apPOL 180',DRC-1; concentration 2.5; 180',-2.947%
same,% inhibition Apo pol 10',DRC-1; concentration 5; 10',18.9507%
same,% inhibition Apol 90',DRC-1; concentration 5; 90',7.548%
same,% inhibition apPOL 180',DRC-1; concentration 5; 180',-2.382%
same,% inhibition Apo pol 10',DRC-1; concentration 10; 10',79.9443%
same,% inhibition Apol 90',DRC-1; concentration 10; 90',71.2049%
same,% inhibition apPOL 180',DRC-1; concentration 10; 180',56.5053%
same,% inhibition Apo pol 10',DRC-1; concentration 20; 10',88.2896%
same,% inhibition Apol 90',DRC-1; concentration 20; 90',90.2431%
same,% inhibition apPOL 180',DRC-1; concentration 20; 180',88.4548%
same,% inhibition Apo pol 10',DRC-1; concentration 40; 10',86.4384%
same,% inhibition Apol 90',DRC-1; concentration 40; 90',91.2458%
same,% inhibition apPOL 180',DRC-1; concentration 40; 180',93.0665%
same,% inhibition Apo pol 10',DRC-1; concentration 80 (unit not given); 10',78.354%
same,% inhibition Apol 90',DRC-1; concentration 80; 90',86.1065%
same,% inhibition apPOL 180',DRC-1; concentration 80; 180',89.6716%
same,% inhibition Apol 40',DRC-2; 40'; concentration 10,65%
same,% inhibition Apol 40',DRC-2; 40'; concentration 40,65%
same,% inhibition apPOL 180',DRC-2; 180'; concentration 20,77%
same,% inhibition apPOL 180',DRC-2; 180'; concentration 40,77%
same,% inhibition Apo pol 5',DRC-2; concentration 2.5; 5',15%
same,% inhibition Apol 40',DRC-2; concentration 2.5; 40',14%
same,% inhibition ApPOL 90',DRC-2; concentration 2.5; 90',9%
same,% inhibition apPOL 180',DRC-2; concentration 2.5; 180',-0.373%
same,% inhibition Apo pol 5',DRC-2; concentration 5; 5',30%
same,% inhibition Apol 40',DRC-2; concentration 5; 40',36%
same,% inhibition ApPOL 90',DRC-2; concentration 5; 90',32%
same,% inhibition apPOL 180',DRC-2; concentration 5; 180',18%
same,% inhibition Apo pol 5',DRC-2; concentration 10; 5',48%
same,% inhibition Apol 40',DRC-2; concentration 10; 40',65%
same,% inhibition ApPOL 90',DRC-2; concentration 10; 90',67%
same,% inhibition apPOL 180',DRC-2; concentration 10; 180',63%
same,% inhibition Apo pol 5',DRC-2; concentration 20; 5',44%
same,% inhibition Apol 40',DRC-2; concentration 20; 40',68%
same,% inhibition ApPOL 90',DRC-2; concentration 20; 90',73%
same,% inhibition apPOL 180',DRC-2; concentration 20; 180',77%
same,% inhibition Apo pol 5',DRC-2; concentration 40; 5',37%
same,% inhibition Apol 40',DRC-2; concentration 40; 40',65%
same,% inhibition ApPOL 90',DRC-2; concentration 40; 90',70%
same,% inhibition apPOL 180',DRC-2; concentration 40; 180',77%
same,% inhibition Apo pol 5',DRC-2; concentration 80; 5',28%
same,% inhibition Apol 40',DRC-2; concentration 80; 40',56%
same,% inhibition ApPOL 90',DRC-2; concentration 80; 90',64%
same,% inhibition apPOL 180',DRC-2; concentration 80; 180',72%
same,DNA Pol,"primary screen value of the 186 hits; unit not given; 90 min, 10 µM",82
same,DNA Pol,"primary screen value; head prints only 'DNA Pol'; 90 min, 10 µM",82
Cc1nc2c(oc3nc(-c4ccco4)c4c(c32)CC(C)(C)OC4)c(-c2ccccc2)c1C(=O)O [Molecule 86],IC50,[1],7.41 µM
"O=C(c1c[nH]c2ncccc12)N1CCCCCC1 [Molecule 51, O=C(c1c[nH]c2c1cccn2)N1CCCCCC1]",DNA Pol,"'DNA Pol'; screening value, unit not given; 90 min, 10 µM",25
same,% inhibition Apo pol 10',DRC-1; 10'; concentration 2.5,0.9621%
same,% inhibition Apo pol 10',DRC-1; 10'; concentration 5,3.05%
same,% inhibition Apo pol 10',DRC-1; 10'; concentration 10,7.159%
same,% inhibition Apo pol 10',DRC-1; 10'; concentration 20,44.6815%
same,% inhibition Apo pol 10',DRC-1; 10'; concentration 40,69.4342%
same,% inhibition Apo pol 10',DRC-1; 10'; concentration 80,66.9665%
same,% inhibition Apol 90',DRC-1; 90'; concentration 2.5,1.194%
same,% inhibition Apol 90',DRC-1; 90'; concentration 5,0.544%
same,% inhibition Apol 90',DRC-1; 90'; concentration 10,3.081%
same,% inhibition Apol 90',DRC-1; 90'; concentration 20,31.7125%
same,% inhibition Apol 90',DRC-1; 90'; concentration 40,60.4317%
same,% inhibition Apol 90',DRC-1; 90'; concentration 80,59.6767%
same,% inhibition apPOL 180',DRC-1; 180'; concentration 2.5,-0.2836%
same,% inhibition apPOL 180',DRC-1; 180'; concentration 5,-4.489%
same,% inhibition apPOL 180',DRC-1; 180'; concentration 10,-1.621%
same,% inhibition apPOL 180',DRC-1; 180'; concentration 20,18.2058%
same,% inhibition apPOL 180',DRC-1; 180'; concentration 40,46.8298%
same,% inhibition apPOL 180',DRC-1; 180'; concentration 80,46.9776%
same,% inhibition Apo pol 5',"DRC-2, 5', concentration 2.5",0.781%
same,% inhibition Apo pol 5',"DRC-2, 5', concentration 5",2.7%
same,% inhibition Apo pol 5',"DRC-2, 5', concentration 10",24%
same,% inhibition Apo pol 5',"DRC-2, 5', concentration 20",38%
same,% inhibition Apo pol 5',"DRC-2, 5', concentration 40",34%
same,% inhibition Apo pol 5',"DRC-2, 5', concentration 80",36%
same,% inhibition Apol 40',"DRC-2, 40', concentration 2.5",4%
same,% inhibition Apol 40',"DRC-2, 40', concentration 5",4.4%
same,% inhibition Apol 40',"DRC-2, 40', concentration 10",28%
same,% inhibition Apol 40',"DRC-2, 40', concentration 20",47%
same,% inhibition Apol 40',"DRC-2, 40', concentration 40",45%
same,% inhibition Apol 40',"DRC-2, 40', concentration 80",61%
same,% inhibition ApPOL 90',"DRC-2, 90', concentration 2.5",2.81%
same,% inhibition ApPOL 90',"DRC-2, 90', concentration 5",3.55%
same,% inhibition ApPOL 90',"DRC-2, 90', concentration 10",25%
same,% inhibition ApPOL 90',"DRC-2, 90', concentration 20",46%
same,% inhibition ApPOL 90',"DRC-2, 90', concentration 40",45%
same,% inhibition ApPOL 90',"DRC-2, 90', concentration 80",68%
same,% inhibition apPOL 180',"DRC-2, 180', concentration 2.5",-1%
same,% inhibition apPOL 180',"DRC-2, 180', concentration 5",-0.742%
same,% inhibition apPOL 180',"DRC-2, 180', concentration 10",17%
same,% inhibition apPOL 180',"DRC-2, 180', concentration 20",37%
same,% inhibition apPOL 180',"DRC-2, 180', concentration 40",35%
same,% inhibition apPOL 180',"DRC-2, 180', concentration 80",72%
same,% inhibition Apol 40',conc 40 (unit not given); 40'; DRC-2,45%
same,% inhibition ApPOL 90',conc 40 (unit not given); 90'; DRC-2,45%
same,DNA Pol,"primary screen hit value, DNA Pol (186 hits); 90 min, 10 µM",25
Cc1cc2[nH]c(C(=O)Nc3ccc(F)cc3)c(CN3CCOCC3)c2s1 [Molecule 60],IC50,[1],21.6 µM
O=C(NNC(=O)c1ccc(Cl)cc1)C(=O)NNC(=O)c1ccc(Cl)cc1 [Molecule 25],IC50,[1],9.83 µM
O=C1NN(c2ccc(Cl)c(Cl)c2)C(=O)/C1=C/c1ccc(-c2ccc3c(c2)C(=O)OC3)o1 [Molecule 90],IC50,[1],3.43 µM
